Data: paper PMC10526274, “Epithelial-Immune Cell Crosstalk Determines the Activation of Immune Cells In Vitro by the Human Cathelicidin LL-37 at Low Physiological Concentrations” (Biomolecules, 2023)
“And” between values parts separate entries of the source, which are not always exact repeats. Equal entries are not always repeated.

Tested on: Caco-2 cells
Test: Multiplex xMAP cytokine levels, Caco-2 epithelial barrier alone stimulated with LL-37
Type: cell-based, human
Details: Caco-2 alone, 1 µM LL-37, 24 h, n=2
Protocol: Caco-2 cell line (ATCC HTB-37) was cultured in a humidified CO2-incubator (5% CO2, 37 °C) in the complete DMEM/F12 (1:1) medium (Gibco, Waltham, MA, USA) containing 10% fetal bovine serum (FBS, Gibco) and 1X antibiotic–antimycotic solution (Gibco). To stabilize the cell phenotype, Caco-2 cells have been subcultivated three times before seeding on the filter supports. Then, Caco-2 cells were seeded at a density of 2 × 10^5 cells/cm^2 onto 24-well Millicell cell culture inserts (PC, 0.4-μm pore size, 0.6 cm^2 surface area, cat. #PIHP01250) (Millipore, Burlington, MA, USA), precoated with 0.2% bovine gelatin (Sigma-Aldrich, Saint Louis, MO, USA). After seeding, Caco-2 cells were grown in the same complete medium with re-feeding every 2–3 days until polarization of the monolayer occurred. The functional polarity of the monolayers was developed when transepithelial electrical resistance (TEER) between the apical and basolateral surfaces of the monolayers reached […] as measured by the electrical resistance system Millicell-ERS Voltohmmeter (Millipore, Burlington, MA, USA). Grown cell monolayers were used in transport and cytokine production experiments between the 21st and 29th days.
Primary blood monocytes, moDCs, and NKT cells were seeded in 600 µL of complete RPMI-1640 with 10% Human AB serum (Capricorn Scientific, Ebsdorfergrund, Germany) and supplemented with 1X antibiotic–antimycotic solution into the wells of 24-well plates at a density of 3–7 × 10^5 cells/well 24 h before the experiment. Then, 24 h later, the medium in each well was replaced by the same medium with 1 µM of LL-37 for the sample wells or fresh medium alone for the control wells, and the permeable inserts with the Caco-2 monolayer with TEER > 400 Ω × cm^2, containing 400 μL of the complete medium in their apical chamber, were immediately placed into the appropriate wells. Also, inserts with the Caco-2 monolayer were placed in cell-free wells of 24-well plates in the same complete RPMI-1640 medium with or without 1 µM of LL-37 as controls. Cells were kept in a CO2-incubator (5% CO2, 37 °C) for another 24 h. Then, culture medium from each well was collected, centrifuged, and frozen at −70 °C.
To quantitatively evaluate a broad spectrum of analytes secreted by human cell cultures at the protein level, multiplex xMAP technology was used. The chosen panel (cat. #HCYTA-60K-PX48, Merck, Darmstadt, Germany) included 48 different magnetic beads with primary antibodies to the following cytokines, chemokines, and growth factors: CCL11 (Eotaxin-1), Flt-3 ligand, CX3CL1 (Fractalkine), sCD40L, FGF-2, EGF, GROα, GM-CSF, G-CSF, IL-1RA, IL-1α, IL-1β, IL-2, IL-3, IL-4, IL-5, IL-6, IL-7, CXCL8 (IL-8), IL-9, IL-10, IL-12p40, IL-12p70, IL-13, IL-15, IL-17A (CTLA8), IL-17E (IL-25), IL-17F, IL-18, IL-22, IL-27, IFNγ, IFNα2, CXCL10 (IP-10), CCL2 (MCP-1), CCL7 (MCP-3), CCL22 (MDC), CXCL9 (MIG), CCL3 (MIP-1α), CCL4 (MIP-1β), CCL5 (RANTES), M-CSF, PDGF-AA, PDGF-AB/BB, TNFα, TNFβ, TGFα, and VEGF-A. The assay was performed in accordance with the manufacturer’s instructions with overnight incubation of the samples with primary antibodies, and the plate was read on a MAGPIX System (Merck) using the xPONENT 4.2 software (Merck). The acquired fluorescence data were analyzed by the MILLIPLEX Analyst v5.1 software (Merck), which realized an advanced curve-fitting algorithm. Levels of the analytes in control and experimental samples were compared with an unpaired two-sample t-test using GraphPad Prism v.8.0.1 (GraphPad Software, Inc., San Diego, CA, USA). The p-values ≤ 0.05 were considered significant.

In the case of “LL-37: the only human cathelicidin, host defense antimicrobial peptide of 37 a.a. residues, produced by solid-phase peptide synthesis”, the MIP-1b level (control 0.3) is reported as 3.42 pg/mL, the IL-18 level (control 0.98) is reported as 0.33 pg/mL and the IL-9 level (control 1.09) is reported as 1.7 pg/mL. The IL-6 level (control 1.75) was 9.84 pg/mL, the MIP-1a level (control 2.06) was 5.65 pg/mL and the EGF level (control 2.26) was <1.60↓ pg/ml. It also gave an IP-10 level (control 4.18) of 2.9 pg/mL, an IL-4 level (control 4.8) of 6.56 pg/mL and an MCP-3 level (control 7.84) of 8.72 pg/mL. For the same substance, the sCD40L level (control 12.72) was 23.6 pg/mL, the TNFb level (control 12.91, p = 0.02) was 18.9 pg/mL and 18.87 pg/mL and the GROa level (control 18.09) was 27.89 pg/mL. The PDGF-AB/BB level (control 22.83) was 29.35 pg/mL, the IL-13 level (control 25.51) was 32.02 pg/mL and the FGF-2 level (control 25.68) was 16.73 pg/mL. For the same substance, the IL-22 level (control 27.2, p = 0.013) was 39 pg/mL and 39.52 pg/mL, the IL-8 level (control 28.45, p = 0.16) was 86 pg/mL and 86.32 pg/mL and the IL-27 level (control 41.5) was 35.81 pg/mL. The MCP-1 level (control 55.94) was 100.47 pg/mL, the PDGF-AA level (control 164.04) was 149.4 pg/mL and the VEGFa level (control 960.31) was 2088 pg/mL. The IL-7 level (control <0.30) was <0.30↓ pg/ml, the MDC level (control <0.31) was <0.31↓ pg/ml and the IL-5 level (control <0.35) was <0.35↓ pg/ml. For the same substance, the IL-2 level (control <0.36) was <0.36↓ pg/ml, the FLT-3L level (control <0.51) was <0.51↓ pg/ml and the IL-3 level (control <0.55) was <0.55↓ pg/ml. The RANTES level (control <0.64) was <0.64↓ pg/ml, the TGF-a level (control <0.68) was <0.68↓ pg/ml and the IL-17A level (control <0.70) was <0.70↓ pg/ml. The IFNg level (control <0.73) was <0.73↓ pg/ml, the IL-1b level (control <0.74) was <0.74↓ pg/ml and the GM-CSF level (control <0.76) was <0.76↓ pg/ml. For the same substance, the IL-1RA level (control <0.93) was <0.93↓ pg/ml, the IL-1a level (control <1.30) was <1.30↓ pg/ml and the IL-10 level (control <1.35) was <1.35↓ pg/ml. For the same substance, the IL-15 level (control <1.54) was <1.54↓ pg/ml, the “IL-12 (p70) level” value (control <1.71) was <1.71↓ pg/ml and the G-CSF level (control <2.32) was <2.32↓ pg/ml. The Eotaxin level (control <2.91) was <2.91↓ pg/ml, the “IL-12 (p40) level” value (control <3.33) was <3.33↓ pg/ml and the MIG level (control <3.38) was <3.38↓ pg/ml. For the same substance, the IFNa2 level (control <3.88) was <3.88↓ pg/ml, the TNFa level (control <3.88) was <3.88↓ pg/ml and the IL-17F level (control <12.19) was <12.19↓ pg/ml. For the same substance, the Fractalkine level (control <18.09) was <18.09↓ pg/ml, the IL-17E/IL-25 level (control <19.43) was <19.43↓ pg/ml and the M-GSF level (control <24.21) was <24.21↓ pg/ml.
